Tested on: Caco-2 cell monolayers
Experiment: Permeability across Caco-2 cell monolayers
Type: in vitro ADME
Settings: Caco-2 monolayers after exposure to test article, 37° C.
Experimental: To test the permeability of dietary fatty acids across Caco-2 cell monolayers, Caco-2 cell monolayers are grown to confluence on collagen-coated, microporous, polycarbonate membranes in 12-well Costar Transwell® plates.
The test article is the aqueous dietary fatty acids formulation, and the dosing concentration is 2 μM in the assay buffer (HBSSg) as in the previous example. Cell monolayers are dosed on the apical side (A-to-B) or basolateral side (B-to-A) and incubated at 37° C. with 5% CO2 in a humidified incubator. Samples are taken from the donor chamber at 120 minutes, and samples from the receiver chamber are collected at 60 and 120 minutes. Each determination is performed in duplicate. Lucifer yellow permeability is also measured for each monolayer after being subjected to the test article to ensure no damage is inflicted to the cell monolayers during the permeability experiment. Permeability of samples of atenolol, propranolol and digoxin are also measured to compare with the permeability of the dietary fatty acids sample. All samples are assayed for dietary fatty acids, or corresponding comparative compounds, by LC/MS/MS using electrospray ionization. The apparent permeability (Papp) and percent recovery are calculated as is known in the art. […]

Papp (post-experiment monolayer integrity control): < 0.8 ×10⁻⁶ cm/s
Substance: Lucifer yellow
